Test results taken from article PMC3881575, “Biochemical and Bioinformatic Characterization of Type II Metacaspase Protein (TaeMCAII) from Wheat” (Plant Molecular Biology Reporter, 2012).
Blank lines part the entries; values can stand above or below the molecule they belong to.

Columns and labels:
Experiment in all cases: colorimetric pNA release, […] nm
Format in all cases: biochemical
TaeMCAII [1] = biological target: T1, TaeMCAII (Triticum aestivum, UniProt D1MBU0, DEL149-214); details: 50 μM Ac-VRPR-pNa, pH 7.0, 30 mM CaCl2, 10 mM DTT; 1 h preincubation at 30°C; irreversible, covalent
T1 construct: gene MCAII; full-length ORF (405 residues, 44 kDa) in pET-28a(+), N-terminal His6 tag, E. coli BL21(DE3)pLysS, Ni-NTA; autoprocessed after Lys148 and Arg214 (66-residue linker removed) into 16 kDa N-terminal and 20 kDa C-terminal subunits
T1 sequence (D1MBU0 1-148): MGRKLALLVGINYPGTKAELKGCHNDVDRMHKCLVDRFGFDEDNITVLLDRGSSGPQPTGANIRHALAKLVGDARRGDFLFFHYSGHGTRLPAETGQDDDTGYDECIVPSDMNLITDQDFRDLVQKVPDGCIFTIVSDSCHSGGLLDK
T1 sequence (D1MBU0 215-405): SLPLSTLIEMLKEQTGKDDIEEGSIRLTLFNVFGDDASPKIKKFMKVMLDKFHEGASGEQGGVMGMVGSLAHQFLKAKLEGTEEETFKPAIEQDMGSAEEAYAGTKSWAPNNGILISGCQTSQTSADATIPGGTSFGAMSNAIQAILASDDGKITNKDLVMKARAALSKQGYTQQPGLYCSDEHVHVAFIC

TaeMCAII [2] = biological target: T1, TaeMCAII; details: 50 μM Ac-VRPR-pNa, pH 7.0, 30 mM CaCl2, 10 mM DTT; 1 h preincubation at 30°C; irreversible, covalent; remark: listed apart in the source
TaeMCAII [3] = biological target: T1, TaeMCAII; details: 50 μM Ac-VRPR-pNa, pH 7.0, 30 mM CaCl2, 10 mM DTT; 1 h preincubation at 30°C; competitive

% activity retained at 100 μM (TaeMCAII [1]): 89%
SMILES: CC(C)C[C@H](NC(=O)[C@@H]1O[C@H]1C(=O)O)C(=O)NCCCCN=C(N)N [E-64, 1-trans-epoxysuccinylleucylamide-(4-guanido)-butane]

SMILES: Cc1ccc(S(=O)(=O)N[C@@H](CCCCN)C(=O)CCl)cc1 [TLCK, N^α-tosyl-L-lysine-chloromethyl ketone]
% decrease of activity at 100 μM (TaeMCAII [2]): 43%

% decrease of activity at 10 μM (TaeMCAII [3]): 88%
SMILES: CC(=O)N[C@@H](CC(C)C)C(=O)N[C@@H](CC(C)C)C(=O)N[C@H](C=O)CCCNC(=N)N [leupeptin]
